Data on 4 substances can be found in paper PMC2994776 (BMC Biochemistry, 2010).

Ends that are not written are not given here.

Experiment [1] deals with B9-23 - reactive T-cell clones. Conditions: type 1 diabetes; cited from earlier work.
Another experiment concerns the target T1, DnaK (Escherichia coli, UniProt P0A6Y8).
T1 construct: made in house
The experiment can be described thus: Fluid phase competition binding assay with acrylodan-labeled NR peptide (a-NR). Details: species or system bacterial. Conditions: read-out: Apparent dissociation equilibrium constant (K'd). The method, then:
Determination of dissociation equilibrium constants
Peptide NR was labeled with the environmentally sensitive fluorophore acrylodan as described. […] After reaching equilibrium (~1.5 h), emission spectra were recorded from 400 nm to 600 nm (bandpass 4 nm) with a Perkin-Elmer spectrofluorimeter LS50B equipped with a stirrer and a thermostatically controlled cuvette holder. The excitation wavelength was set at 370 nm (bandpass 4 nm). Measurements were performed in a volume of 800 μl in 25 mM Hepes/KOH, 100 mM KCl, 10 mM MgCl2, pH 7.4 containing 1 mM DTT and 1 mM ADP-Pi at 25°C.
(1) ΔF=ΔFmaxxP/(P+Kdx(1+L/K'd))

T1 sequence (P0A6Y8 whole entry): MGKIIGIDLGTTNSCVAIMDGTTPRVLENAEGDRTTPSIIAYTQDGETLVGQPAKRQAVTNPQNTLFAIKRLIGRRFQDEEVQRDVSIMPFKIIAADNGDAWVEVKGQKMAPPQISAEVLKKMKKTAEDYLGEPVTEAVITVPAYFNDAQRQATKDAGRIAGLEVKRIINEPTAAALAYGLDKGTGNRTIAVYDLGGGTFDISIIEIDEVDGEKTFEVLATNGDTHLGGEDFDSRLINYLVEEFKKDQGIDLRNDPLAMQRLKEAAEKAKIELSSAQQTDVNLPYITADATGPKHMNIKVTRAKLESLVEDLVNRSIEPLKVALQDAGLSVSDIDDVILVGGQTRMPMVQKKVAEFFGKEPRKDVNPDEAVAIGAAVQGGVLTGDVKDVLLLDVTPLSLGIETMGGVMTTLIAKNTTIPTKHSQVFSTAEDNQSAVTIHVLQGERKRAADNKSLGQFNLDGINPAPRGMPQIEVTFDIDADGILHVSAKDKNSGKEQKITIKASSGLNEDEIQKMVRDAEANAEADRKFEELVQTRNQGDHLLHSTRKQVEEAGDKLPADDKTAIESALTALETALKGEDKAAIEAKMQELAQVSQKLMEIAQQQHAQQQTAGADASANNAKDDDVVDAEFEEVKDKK

Consider “B9-23: insulin peptide identified as an immunodominant epitope of autoimmune T-cell reactivity in type 1 diabetes (SHLVEALYLVCGERG; ends and bridges not checked; UniProt P01308 33-47, looked up, fragment) [Peptide B9-23]”, for which the “immunodominance in autoimmune T-cell reactivity (in words)” value in experiment [1] was “immunodominant epitope of autoimmune T-cell reactivity in type 1 diabetes”.

Take LVEALYLVCGERG [Peptide B11-23]: the Kd on DnaK turned out to be 2200 ± 400 nM.

In the case of “SHAMAPVLYLQDK [Control peptide (sigma32 aa192-204)]”, the Kd on DnaK turned out to be 500 ± 100 nM.

For the substance VCGERGFFYTPKT [Peptide B18-30], the Kd on DnaK is 51900 ± 12800 nM.
